Results on 21 compounds are retold here after US20220047569A1, “METHOD AND COMPOUND FOR USE, IN TREATING AND/OR PREVENTING NETOSIS” (Jubilant EpiPad LLC, priority 2020, published 2022).

SMILES strings stand for the structures. Counter-ions that a name gives are not always drawn. Where only a bound is given, the exact number is not on record here.

This assay deals with Histone H3 Citrullination in Neutrophils. Kind of assay: Citrullination ELISA (Citrullinated Histone H3) in calcium ionophore stimulated neutrophils. In kind it is cell-based. Particulars: Neutrophil; human neutrophils, 25 μM calcium ionophore, CitH3 ELISA. Put shortly: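 Freshly isolated human donor neutrophils in RPMI with 2% BSA and 1 mM CaCl2 were pre-incubated 30 min with compound (10, 1, 0.1 μM), then stimulated 30 min with 25 μM calcium ionophore. After S7 nuclease digestion, lysates were assayed by citrullinated histone H3 ELISA (450 nm); IC50 from sigmoidal fits.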
On the technique in general: ELISA stands for enzyme-linked immunosorbent assay.
One may read the IC50 as the concentration at which inhibition is half-maximal. `Cc1c(-c2cc3ccc(F)cc3n2Cc2ccc(F)cc2)nc2cc(C(=O)N3CCC[C@@H](N)C3)ccn12` [Compound 54, (R)-(3-aminopiperidin-1-yl)(2-(6-fluoro-1-(4-fluorobenzyl)-1H-indol-2-yl)-3-methylimidazo[1,2-a]pyridin-7-yl)methanone]: the IC50 was below 100 nM. The figure for `Cc1c(-c2cc3ccccc3n2Cc2ccc(F)cc2)nc2cc(C(=O)N3CCC[C@@H](NC(=O)/C=C/CN(C)C)C3)ccn12` [Compound 56, (R,E)-4-(dimethylamino)-N-(1-(2-(1-(4-fluorobenzyl)-1H-indol-2-yl)-3-methylimidazo[1,2-a]pyridine-7-carbonyl)piperidin-3-yl)but-2-enamide] is above 1000 nM; for `CC(C)Cn1c(-c2nc3cc(C(=O)N4CCC[C@@H](N)C4)cc4c3n2CCO4)cc2cccc(Cl)c21` [Compound 141, (R)-(3-aminopiperidin-1-yl)(2-(7-chloro-1-isobutyl-1H-indol-2-yl)-3,4-dihydro-5-oxa-1,2a-diazaacenaphthylen-7-yl)methanone] it is above 1000 nM; for `Cc1c(-c2cc3ccccc3n2Cc2ccc(F)cc2)nc2cc(C(=S)N3CCC[C@@H](N)C3)ccn12` [Compound 45, (R)-(3-aminopiperidin-1-yl)(2-(1-(4-fluorobenzyl)-1H-indol-2-yl)-3-methylimidazo[1,2-a]pyridin-7-yl)methanethione] it is below 100 nM. To `Cc1c(-c2cc3ccccc3n2CC2CCC2)nc2cc(C(=O)N3CCC[C@@H](N)C3)ccn12` [Compound 61, (R)-(3-aminopiperidin-1-yl)(2-(1-(cyclobutylmethyl)-1H-indol-2-yl)-3-methylimidazo[1,2-a]pyridin-7-yl)methanone] belongs above 1000 nM; to `N[C@@H]1CCCN(C(=O)c2cc3c4c(c2)nc(-c2cc5ccccc5n2Cc2ccc(CO)cc2)n4CCO3)C1` [Compound 123, (R)-(3-aminopiperidin-1-yl)(2-(1-(4-(hydroxymethyl)benzyl)-1H-indol-2-yl)-3,4-dihydro-5-oxa-1,2a-diazaacenaphthylen-7-yl)methanone trifluoroacetic acid salt], 100 to 1000 nM; to `CN1CCn2c(-c3cc4cc(F)ccc4n3CC3CC3)nc3cc(C(=O)N4CCC[C@@H](N)C4)cc1c32` [Compound 161, (R)-(3-aminopiperidin-1-yl)(2-(1-(cyclopropylmethyl)-5-fluoro-1H-indol-2-yl)-6-methyl-5,6-dihydro-4H-imidazo[1,5,4-de]quinoxalin-8-yl)methanone], below 100 nM. The figure for `N[C@@H]1CCCN(C(=O)c2cc3c4c(c2)nc(-c2cc5ccccc5n2Cc2cnccn2)n4CCO3)C1` [Compound 111, (R)-(3-aminopiperidin-1-yl)(2-(1-(pyrazin-2-ylmethyl)-1H-indol-2-yl)-3,4-dihydro-5-oxa-1,2a-diazaacenaphthylen-7-yl)methanone] is 100 to 1000 nM; for `N[C@@H]1CCCN(C(=O)c2cc3c4c(c2)nc(-c2cc5cc(Br)ccc5n2CC2CC2)n4CCN3)C1` [Compound 153, (R)-(3-aminopiperidin-1-yl)(2-(5-bromo-1-(cyclopropylmethyl)-1H-indol-2-yl)-5,6-dihydro-4H-imidazo[1,5,4-de]quinoxalin-8-yl)methanone] it is below 100 nM. For `N[C@@H]1CCCN(C(=O)c2cc3c4c(c2)nc(-c2cc5cc(F)ccc5n2CC2CC2)n4CCN3)C1` [Compound 150, (R)-(3-aminopiperidin-1-yl)(2-(1-(cyclopropylmethyl)-5-fluoro-1H-indol-2-yl)-5,6-dihydro-4H-imidazo[1,5,4-de]quinoxalin-8-yl)methanone], the IC50 was 100 to 1000 nM. Consider `Cc1c(-c2cc3ccccc3n2CC2CCOCC2)nc2cc(C(=O)N3CCC[C@@H](N)C3)ccn12` [Compound 11, (R)-(3-aminopiperidin-1-yl)(3-methyl-2-(1-((tetrahydro-2H-pyran-4-yl)methyl)-1H-indol-2-yl)imidazo[1,2-a]pyridin-7-yl)methanone], for which the IC50 was in the range of 100 to 1000 nM. On to `CCn1c(-c2nc3cc(C(=O)N4CCC[C@@H](N)C4)ccn3c2C)cc2ccc(OC)cc21` [Compound 67, (R)-(3-aminopiperidin-1-yl)(2-(1-ethyl-6-methoxy-1H-indol-2-yl)-3-methylimidazo[1,2-a]pyridin-7-yl)methanone], for which the IC50 was above 1000 nM.

`N[C@@H]1CCCN(C(=O)c2cc3c4c(c2)nc(-c2cc5cc(F)c(F)cc5n2CC2CC2)n4CCN3)C1` [Compound 163, (R)-(3-aminopiperidin-1-yl)(2-(1-(cyclopropylmethyl)-5,6-difluoro-1H-indol-2-yl)-5,6-dihydro-4H-imidazo[1,5,4-de]quinoxalin-8-yl)methanone]: the IC50 was below 100 nM. On to `COCCn1c(-c2nc3cc(C(=O)N4CCC[C@@H](N)C4)cc4c3n2CCO4)cc2cccc(Cl)c21` [Compound 122, (R)-(3-aminopiperidin-1-yl)(2-(7-chloro-1-(2-methoxyethyl)-1H-indol-2-yl)-3,4-dihydro-5-oxa-1,2a-diazaacenaphthylen-7-yl)methanone], for which the IC50 lay in the range of 100 to 1000 nM. To `Cc1c(-c2cc3ccccc3n2Cc2cccnc2)nc2cc(C(=O)N3CCC[C@@H](N)C3)ccn12` [Compound 15, (R)-(3-aminopiperidin-1-yl)(3-methyl-2-(1-(pyridin-3-ylmethyl)-1H-indol-2-yl)imidazo[1,2-a]pyridin-7-yl)methanone] belongs below 100 nM; to `COc1cccc(Cn2c(-c3nc4cc(C(=O)N5CCC[C@@H](N)C5)ccn4c3C)cc3ccc(F)cc32)c1` [Compound 70, (R)-(3-aminopiperidin-1-yl)(2-(6-fluoro-1-(3-methoxybenzyl)-1H-indol-2-yl)-3-methylimidazo[1,2-a]pyridin-7-yl)methanone], below 100 nM. Take `N[C@@H]1CCCN(C(=O)c2cc3c4c(c2)nc(-c2cc5ccccc5n2Cc2ncccc2F)n4CCO3)C1` [Compound 112, (R)-(3-aminopiperidin-1-yl)(2-(1-((3-fluoropyridin-2-yl)methyl)-1H-indol-2-yl)-3,4-dihydro-5-oxa-1,2a-diazaacenaphthylen-7-yl)methanone]: the IC50 is below 100 nM. With `N[C@@H]1CCCN(C(=O)c2cc3c4c(c2)nc(-c2cc5cc(F)ccc5n2CC2CC2)n4CCO3)C1` [Compound 95, (R)-(3-aminopiperidin-1-yl)(2-(1-(cyclopropylmethyl)-5-fluoro-1H-indol-2-yl)-3,4-dihydro-5-oxa-1,2a-diazaacenaphthylen-7-yl)methanone], the IC50 was below 100 nM.

With `Cc1c(-c2cc3ccccc3n2Cc2ccc(F)cn2)nc2cc(C(=O)N3CCC[C@@H](N)C3)ccn12` [Compound 79, (R)-(3-aminopiperidin-1-yl)(2-(1-((5-fluoropyridin-2-yl)methyl)-1H-indol-2-yl)-3-methylimidazo[1,2-a]pyridin-7-yl)methanone], the IC50 was above 1000 nM. On to `CCn1c(-c2nc3cc(C(=O)N4CCC[C@@H](N)C4)ccn3c2C)cc2cc(F)ccc21` [Compound 39, (R)-(3-aminopiperidin-1-yl)(2-(1-ethyl-5-fluoro-1H-indol-2-yl)-3-methylimidazo[1,2-a]pyridin-7-yl)methanone], for which the IC50 is below 100 nM. To `COc1ccc(Cn2c(-c3nc4cc(C(=O)N5CCC[C@@H](N)C5)ccn4c3C)cc3ccc(F)cc32)cc1` [Compound 71, (R)-(3-aminopiperidin-1-yl)(2-(6-fluoro-1-(4-methoxybenzyl)-1H-indol-2-yl)-3-methylimidazo[1,2-a]pyridin-7-yl)methanone] belongs above 1000 nM.
